Data as given in ChEMBL document CHEMBL1201862, “PubChem BioAssay data set” (2004).
Activity calls are given as the source filed them.

Legend:
[1] = molecular target: T1, Aspartyl aminopeptidase (Plasmodium falciparum 3D7, UniProt Q8I2J3); assay: Counterscreen for inhibitors of M1 and M17 aminopeptidases: QFRET-based biochemical high throughput dose response assay for inhibitors of the Plasmodium falciparum M18 Aspartyl Aminopeptidase (PFM18AAP). [Related PubChem assays: 1619 (Screening assay (M17LAP inhibitors).), 1445 (Screening assay (M1AAP inhibitors).)]
T1 sequence (Q8I2J3 whole entry): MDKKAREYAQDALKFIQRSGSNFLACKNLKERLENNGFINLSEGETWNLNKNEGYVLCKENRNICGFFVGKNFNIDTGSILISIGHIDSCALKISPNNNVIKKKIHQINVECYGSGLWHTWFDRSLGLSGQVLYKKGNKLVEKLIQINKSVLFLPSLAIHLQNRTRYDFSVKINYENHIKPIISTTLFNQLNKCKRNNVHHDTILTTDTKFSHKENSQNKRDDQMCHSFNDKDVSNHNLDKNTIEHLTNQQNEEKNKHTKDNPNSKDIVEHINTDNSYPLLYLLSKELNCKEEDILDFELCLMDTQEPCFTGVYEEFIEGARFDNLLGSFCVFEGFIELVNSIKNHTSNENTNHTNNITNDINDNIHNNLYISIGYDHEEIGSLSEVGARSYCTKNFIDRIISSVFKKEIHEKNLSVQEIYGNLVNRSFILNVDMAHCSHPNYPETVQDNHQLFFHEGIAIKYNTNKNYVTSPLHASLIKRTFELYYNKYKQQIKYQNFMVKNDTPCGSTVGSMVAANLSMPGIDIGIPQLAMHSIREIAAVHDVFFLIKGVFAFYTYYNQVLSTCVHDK

[2] = molecular target: T2, Protein skinhead-1 (Caenorhabditis elegans, UniProt P34707); assay type: functional
T2 sequence (P34707 whole entry): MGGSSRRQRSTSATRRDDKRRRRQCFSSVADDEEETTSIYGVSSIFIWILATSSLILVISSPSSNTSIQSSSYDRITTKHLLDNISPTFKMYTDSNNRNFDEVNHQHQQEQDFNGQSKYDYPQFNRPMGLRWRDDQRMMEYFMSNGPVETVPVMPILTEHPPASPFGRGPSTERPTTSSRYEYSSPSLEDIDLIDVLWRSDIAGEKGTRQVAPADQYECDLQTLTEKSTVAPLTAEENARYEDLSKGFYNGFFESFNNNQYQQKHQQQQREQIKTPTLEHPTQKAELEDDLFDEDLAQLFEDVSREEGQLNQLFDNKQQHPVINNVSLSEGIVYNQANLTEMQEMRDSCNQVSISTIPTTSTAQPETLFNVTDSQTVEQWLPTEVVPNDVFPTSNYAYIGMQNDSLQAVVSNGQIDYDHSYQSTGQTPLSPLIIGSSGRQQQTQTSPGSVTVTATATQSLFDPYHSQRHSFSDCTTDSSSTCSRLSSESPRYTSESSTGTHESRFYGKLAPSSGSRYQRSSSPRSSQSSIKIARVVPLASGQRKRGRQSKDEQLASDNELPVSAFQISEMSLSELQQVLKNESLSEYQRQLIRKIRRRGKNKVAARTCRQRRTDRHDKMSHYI

[3] = molecular target: Procathepsin L (Homo sapiens, UniProt P07711); assay: cathepsin L inhibitors, dose response, counter-screen for M1/M17 aminopeptidase inhibitor project, biochemical, QFRET, 1536-well (AID 2214)
Procathepsin L, sequence (P07711 whole entry): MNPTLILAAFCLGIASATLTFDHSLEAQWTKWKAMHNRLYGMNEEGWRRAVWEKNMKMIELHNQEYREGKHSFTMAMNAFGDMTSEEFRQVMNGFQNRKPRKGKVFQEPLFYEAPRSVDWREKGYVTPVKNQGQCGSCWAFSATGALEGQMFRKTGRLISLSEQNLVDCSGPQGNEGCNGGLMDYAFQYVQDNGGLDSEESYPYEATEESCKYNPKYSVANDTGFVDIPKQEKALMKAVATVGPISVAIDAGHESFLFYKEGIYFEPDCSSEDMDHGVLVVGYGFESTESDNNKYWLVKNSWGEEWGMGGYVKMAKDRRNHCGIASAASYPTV

[4] = molecular target: T3, Leucine aminopeptidase (Plasmodium falciparum 3D7, UniProt Q8IL11); assay: P. falciparum M17LAP inhibitors, primary screen, biochemical, fluorogenic H-Leu-NHMec substrate, 1536-well (AID 1619); assay type: functional
T3 sequence (Q8IL11 whole entry): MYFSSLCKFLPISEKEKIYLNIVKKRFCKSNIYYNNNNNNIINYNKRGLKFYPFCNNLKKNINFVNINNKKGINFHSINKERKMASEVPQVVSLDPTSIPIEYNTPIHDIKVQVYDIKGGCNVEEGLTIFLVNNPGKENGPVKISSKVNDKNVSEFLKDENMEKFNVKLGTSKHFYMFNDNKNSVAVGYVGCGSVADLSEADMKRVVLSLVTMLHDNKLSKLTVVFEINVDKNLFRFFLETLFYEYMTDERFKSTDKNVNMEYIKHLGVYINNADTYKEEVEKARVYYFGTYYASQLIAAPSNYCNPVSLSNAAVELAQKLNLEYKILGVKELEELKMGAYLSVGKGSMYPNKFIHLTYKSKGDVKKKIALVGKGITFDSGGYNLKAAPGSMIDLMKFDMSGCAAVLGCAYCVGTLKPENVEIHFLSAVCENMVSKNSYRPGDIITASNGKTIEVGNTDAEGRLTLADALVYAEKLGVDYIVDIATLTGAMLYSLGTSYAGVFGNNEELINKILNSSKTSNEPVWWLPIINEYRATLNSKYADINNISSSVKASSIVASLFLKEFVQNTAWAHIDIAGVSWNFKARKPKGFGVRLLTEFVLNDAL

[5] = molecular target: Dual specificity protein phosphatase 6 (Rattus norvegicus, UniProt Q64346); assay: MKP-3 phosphatase inhibitors, primary screen, biochemical, rat enzyme, in vitro (AID 425)
Dual specificity protein phosphatase 6, sequence (Q64346 whole entry): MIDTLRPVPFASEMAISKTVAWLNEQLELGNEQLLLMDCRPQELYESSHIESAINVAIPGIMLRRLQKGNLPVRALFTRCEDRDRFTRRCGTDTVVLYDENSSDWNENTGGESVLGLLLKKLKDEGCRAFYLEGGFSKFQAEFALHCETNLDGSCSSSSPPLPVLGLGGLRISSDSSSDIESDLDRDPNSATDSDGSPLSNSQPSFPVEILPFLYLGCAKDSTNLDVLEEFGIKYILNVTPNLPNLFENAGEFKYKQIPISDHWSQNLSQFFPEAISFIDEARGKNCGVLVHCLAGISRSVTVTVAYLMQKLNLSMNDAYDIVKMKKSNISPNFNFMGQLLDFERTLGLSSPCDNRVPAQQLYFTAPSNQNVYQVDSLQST

[6] = molecular target: Prothrombin (Homo sapiens, UniProt P00734); assay: Thrombin 1536 HTS Dose Response Confirmation. [Related pubchem assays: 1046 (Thrombin 1536 HTS; hits were confirmed in this assay)]; assay type: functional
[7] = molecular target: T4, Bcl-2-related protein A1 (Mus musculus, UniProt Q07440); assay: Bfl-1 binding inhibitors, SAR follow-up, biochemical, fluorescence polarization (AID 1070)
T4 sequence (Q07440 whole entry): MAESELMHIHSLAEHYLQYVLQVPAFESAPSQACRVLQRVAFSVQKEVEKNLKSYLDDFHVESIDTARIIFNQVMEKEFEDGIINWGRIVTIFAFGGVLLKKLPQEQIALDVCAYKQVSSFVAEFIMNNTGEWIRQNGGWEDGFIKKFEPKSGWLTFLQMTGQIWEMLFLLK

[8] = molecular target: T4, Bcl-2-related protein A1; assay: Bfl-1 inhibitors blocking BH3 peptide binding, confirmation, biochemical, TR-FRET, mouse Bfl-1 (AID 621);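 also: TR-FRET binding of GST-Bfl-1 to FITC-labelled Bid peptide via terbium antibody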
[9] = molecular target: Cytochrome P450 2C19 (Homo sapiens, UniProt P33261); assay: qHTS Assay for Inhibitors and Substrates of Cytochrome P450 2C19. [Related pubchem assays: 410 ]; assay type: ADME; settings: read-out: Potency
Cytochrome P450 2C19, sequence (P33261 whole entry): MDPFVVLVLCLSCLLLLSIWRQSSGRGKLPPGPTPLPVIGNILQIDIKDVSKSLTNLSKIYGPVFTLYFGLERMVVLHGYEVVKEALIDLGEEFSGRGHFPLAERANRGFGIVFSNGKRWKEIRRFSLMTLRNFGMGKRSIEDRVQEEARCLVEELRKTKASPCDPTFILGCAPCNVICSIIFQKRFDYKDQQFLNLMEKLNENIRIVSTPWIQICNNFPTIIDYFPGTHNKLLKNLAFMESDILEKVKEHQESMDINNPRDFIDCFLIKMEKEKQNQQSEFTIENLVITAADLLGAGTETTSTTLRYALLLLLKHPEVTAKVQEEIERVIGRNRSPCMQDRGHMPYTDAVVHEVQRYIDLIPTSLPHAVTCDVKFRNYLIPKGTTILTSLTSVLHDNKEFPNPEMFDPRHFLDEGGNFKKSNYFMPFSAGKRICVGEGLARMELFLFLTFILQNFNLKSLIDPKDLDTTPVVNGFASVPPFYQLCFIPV

[10] = Escherichia coli growth inhibition, dose response, counter-screen for MEX-5/POS-1 RNA-binding inhibitor project, luminescence, NEB5alpha (AID 1959); assay type: functional
[11] = molecular target: T5, Zinc finger protein mex-5 (Caenorhabditis elegans, UniProt Q9XUB2); assay: MEX-5/TCR-2 RNA interaction inhibitors, dose response, biochemical, C. elegans, fluorescence polarization (AID 1960)
T5 sequence (Q9XUB2 whole entry): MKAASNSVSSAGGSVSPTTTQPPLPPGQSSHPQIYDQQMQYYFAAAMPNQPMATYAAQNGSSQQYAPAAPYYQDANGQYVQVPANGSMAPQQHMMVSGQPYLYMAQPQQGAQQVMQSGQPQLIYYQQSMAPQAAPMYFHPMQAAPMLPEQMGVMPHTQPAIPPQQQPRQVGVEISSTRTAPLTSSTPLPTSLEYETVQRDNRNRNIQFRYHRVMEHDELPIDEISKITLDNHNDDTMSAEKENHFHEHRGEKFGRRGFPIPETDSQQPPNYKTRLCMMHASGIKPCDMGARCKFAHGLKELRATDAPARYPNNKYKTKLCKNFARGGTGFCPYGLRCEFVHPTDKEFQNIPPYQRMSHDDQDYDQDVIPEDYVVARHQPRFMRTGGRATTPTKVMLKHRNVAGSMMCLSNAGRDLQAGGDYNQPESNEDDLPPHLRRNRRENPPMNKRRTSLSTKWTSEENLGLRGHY

[12] = molecular target: T6, RNA-binding protein pos-1 (Caenorhabditis elegans, UniProt G5EF15); assay: inhibitors of POS-1/mex-3 RNA binding, dose response, biochemical, fluorescence polarization (AID 1964);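 also: purified POS-1 fused to maltose binding protein made in E. coli; potency of compounds blocking POS-1 binding to fluorescent RNA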
T6 sequence (G5EF15 whole entry): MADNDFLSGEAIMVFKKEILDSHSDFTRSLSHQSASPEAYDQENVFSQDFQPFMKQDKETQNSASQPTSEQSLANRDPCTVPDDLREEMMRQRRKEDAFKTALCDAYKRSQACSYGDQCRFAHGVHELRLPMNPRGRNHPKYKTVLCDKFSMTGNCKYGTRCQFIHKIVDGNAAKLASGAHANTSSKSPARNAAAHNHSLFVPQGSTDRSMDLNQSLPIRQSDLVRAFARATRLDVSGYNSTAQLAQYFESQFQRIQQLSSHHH

O=C(CSc1nc(O)cc(O)n1)Nc1ccc2c(c1)CCC2
IC50 [1]: > 73.5 µM (not active)
IC50 [2]: > 100 µM (inactive)
IC50 [3]: > 59.6 µM (not active)
IC50 [4]: 2.01 µM (active)

CCCCOc1ccccc1P(=O)(O)CP(=O)(c1ccccc1)c1ccccc1
IC50 [5]: > 100 µM (not active)

COc1ccc(NC(=O)Cc2ccccc2F)cn1
IC50 [6]: > 50 µM (not active)

COc1ncccc1-c1nnn(-c2ccc(Cl)nc2)n1
IC50 [7]: > 100 µM (not active)
IC50 [8]: > 100 µM (not active)

C[C@@]12CCC(=O)C=C1CC[C@H]1[C@H]3CC[C@](O)(C(=O)CO)[C@]3(C)CC[C@@H]12
AC50 [9]: 10 µM (inconclusive)

NC(=O)c1ccccc1N/C=C/C(=O)c1ccc(F)cc1
EC50 [10]: 23 µM (active)
EC50 [11]: > 300 µM (not active)
EC50 [12]: > 300 µM (not active)
